Experimental data published in the supplement of paper PMC11061612.

Assays:
[1] = test system: MDA-MB-415 (Breast Carcinoma); test: combination Emax (second highest fraction inhibited in the dose matrix, 72 h); higher = more inhibition; extreme values may be limits of the assay
Method in brief: (§1)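 Bliss excess equals the observed combination effect minus the expected value EA + EB − EA·EB, where EA and EB are the effects of each agent alone. Combination Emax is the second-highest inhibition within the matrix. Inhibition was scaled from CellTiter-Glo 2.0 luminescence, with 0 set by vehicle wells and 1 by blank wells, after 72 hours of two-drug dosing of cells plated in 1536-well plates.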

[2] = test system: MONO-MAC-6 (Acute Myeloid Leukemia); test: as above
Method in brief: as §1

[3] = test system: BxPC-3 (Pancreatic Carcinoma); test: as above
Method in brief: as §1

NCI-H226 (Mesothelioma) = test: as above
Method in brief: as §1

[4] = test system: KP-4 (Pancreatic Carcinoma); test: as above
Method in brief: as §1

[5] = test system: NAMALWA (Burkitt's Lymphoma); test: as above
Method in brief: as §1

[6] = test system: C-33-A (Cervical Carcinoma); test: as above
Method in brief: as §1

[7] = test system: RCC-JW (Kidney Carcinoma); test: as above
Method in brief: as §1

[8] = test system: SNU-423 (Hepatocellular Carcinoma); test: as above
Method in brief: as §1

[9] = test system: MS-1 (Small Cell Lung Carcinoma); test: as above
Method in brief: as §1

[10] = test system: IA-LM (Non-Small Cell Lung Carcinoma); test: as above
Method in brief: as §1

GAK (Melanoma) = test: as above
Method in brief: as §1

IST-MEL1 (Melanoma) = test: as above
Method in brief: as §1

[11] = test system: KP-4 (Pancreatic Carcinoma); test: Bliss excess, mean over the matrix (fraction); higher = more synergy
Method in brief: as §1

SMILES	combination Emax [1]	combination Emax [2]	combination Emax [3]	combination Emax (NCI-H226 (Mesothelioma))	combination Emax [4]	combination Emax [5]	combination Emax [6]	combination Emax [7]	combination Emax [8]	combination Emax [9]	combination Emax [10]	combination Emax (GAK (Melanoma))	combination Emax (IST-MEL1 (Melanoma))	Bliss excess [11]
C[C@@H](Oc1cc(-c2cnn(C3CCNCC3)c2)cnc1N)c1c(Cl)ccc(F)c1Cl [Crizotinib] + CC1=C(C(=CC=C1)Cl)NC(=O)C2=CN=C(S2)NC3=CC(=NC(=N3)C)N4CCN(CC4)CCO [Dasatinib] (first compound max 10 µM, 7x7, partner max 2 µM)	0.323	0.947	0.938	0.558	0.848	0.934	0.582	0.851	0.934	0.686	0.601	0.694	0.76	0.0493
CN(CCO)CC[C@H](CSc1ccccc1)Nc1ccc(S(=O)(=O)NC(=O)c2ccc(N3CCC([C@@H](O)c4ccccc4-c4ccc(Cl)cc4)CC3)cc2)cc1S(=O)(=O)C(F)(F)F [AZD4320] + Nc1ccn([C@@H]2O[C@H](CO)[C@@H](O)C2(F)F)c(=O)n1 [Gemcitabine] (first compound max 1 µM, 7x7, partner max 0.3 µM)	0.637	1	0.577	0.555		0.99	0.796	0.965	0.605	0.78	0.594	0.583		
N#Cc1cnc(Nc2cc(NC[C@H]3CNCCO3)c(C(F)(F)F)cn2)cn1 [SRA737] + O=c1[nH]cc(F)c(=O)[nH]1 [5-Fluorouracil] (first compound max 10 µM, 7x7, partner max 20 µM)	0.381	1	0.555	0.145	0.376	0.967	0.478	0.21	0.477	0.584	0.0378	0.448	0.528	0.0334
Cc1nc(-c2cn3c(n2)-c2ccc(-c4cnn(C(C)(C)C(N)=O)c4)cc2OCC3)n(C(C)C)n1 [Taselisib] + O=C(Nc1ccc2[nH]nc(-c3ccncc3)c2c1)[C@@H]1CCN(CC(=O)N2CCN(c3ccc(-c4ncccn4)cc3)CC2)C1 [SCH772984] (first compound max 10 µM, 7x7, partner max 5 µM)	0.846	0.964	0.956	0.393	0.776	0.65	0.661	0.638	0.82	0.48	0.399	0.944	0.885	0.215
CN(CCO)CC[C@H](CSc1ccccc1)Nc1ccc(S(=O)(=O)NC(=O)c2ccc(N3CCC([C@@H](O)c4ccccc4-c4ccc(Cl)cc4)CC3)cc2)cc1S(=O)(=O)C(F)(F)F [AZD4320] + CS(=O)(=O)CCNCc1ccc(-c2ccc3ncnc(Nc4ccc(OCc5cccc(F)c5)c(Cl)c4)c3c2)o1 [Lapatinib] (first compound max 1 µM, 7x7, partner max 10 µM)	0.917	0.885	0.486	0.309	0.186	0.373	0.476	1	0.91	0.971	0.539	0.272	0.364	-0.0251
N#Cc1cnc(Nc2cc(NC[C@H]3CNCCO3)c(C(F)(F)F)cn2)cn1 [SRA737] + CCc1c2c(nc3ccc(O)cc13)-c1cc3c(c(=O)n1C2)COC(=O)[C@]3(O)CC [SN-38] (first compound max 10 µM, 7x7, partner max 0.3 µM)	0.431	1	0.671	0.248		0.994	0.943	0.574	0.648	0.799	0.675	0.585	0.828	-0.031
C=CCn1c(=O)c2cnc(Nc3ccc(N4CCN(C)CC4)cc3)nc2n1-c1cccc(C(C)(C)O)n1 [AZD1775] + CCc1c2c(nc3ccc(O)cc13)-c1cc3c(c(=O)n1C2)COC(=O)[C@]3(O)CC [SN-38] (first compound max 1 µM, partner max 0.3 µM)	0.469	1	0.562	0.366		1	0.997	0.542	0.598	0.86	0.67	0.678	0.825	0.0054
O=C(c1cc(Cc2n[nH]c(=O)c3ccccc23)ccc1F)N1CCN(C(=O)C2CC2)CC1 [Olaparib] + CN(CC[C@H](CSC1=CC=CC=C1)NC2=C(C=C(C=C2)S(=O)(=O)NC(=O)C3=CC=C(C=C3)N4CCC(CC4)[C@H](C5=CC=CC=C5C6=CC=C(C=C6)Cl)O)S(=O)(=O)C(F)(F)F)CCO [AZD4320] (first compound max 10 µM, 7x7, partner max 1 µM)	0.553	0.431	0.148	0.105	0.155	0.396	0.386	0.787	0.236	0.636	0.328	0.146	0.171	-0.0113
O=C(c1cc(Cc2n[nH]c(=O)c3ccccc23)ccc1F)N1CCN(C(=O)C2CC2)CC1 [Olaparib] + COc1nnc2ccc(N3CCC(c4ccc(OCCN5CCN(C)C(=O)[C@H]5C)cc4)CC3)nn12 [AZD5153] (first compound max 10 µM, 7x7, partner max 1 µM)	0.362	0.882	0.403	0.376	0.532	0.751	0.484	0.38	0.302	0.757	0.352	0.451	0.252	-0.0266
O=C(c1cc(Cc2n[nH]c(=O)c3ccccc23)ccc1F)N1CCN(C(=O)C2CC2)CC1 [Olaparib] + Cc1c2c(nn1C)CSCc1cc(n(C)n1)CSc1cc(c3ccccc3c1)OCCCc1c(C(=O)O)n(C)c3c-2c(Cl)ccc13 [AZD5991] (first compound max 10 µM, 7x7, partner max 1 µM)	0.339	0.993	0.043	0.107	0.113	0.979	0.329	0.163	0.16	0.501	0.0022	0.0885	0.101	-0.0386
C=CCn1c(=O)c2cnc(Nc3ccc(N4CCN(C)CC4)cc3)nc2n1-c1cccc(C(C)(C)O)n1 [AZD1775] + Nc1ccn([C@@H]2O[C@H](CO)[C@@H](O)C2(F)F)c(=O)n1 [Gemcitabine] (first compound max 1 µM, partner max 0.3 µM)	0.58	1	0.554	0.482		1	0.996	0.819	0.655	0.838	0.287	0.612	0.662	
Cc1c2c(nn1C)CSCc1cc(n(C)n1)CSc1cc(c3ccccc3c1)OCCCc1c(C(=O)O)n(C)c3c-2c(Cl)ccc13 [AZD5991] + Nc1ccn([C@@H]2O[C@H](CO)[C@@H](O)C2(F)F)c(=O)n1 [Gemcitabine] (first compound max 1 µM, 7x7, partner max 0.3 µM)	0.526	1	0.47	0.173		1	0.895	0.828	0.43	0.722	0.261	0.473	0.606	
C[C@@H]1COCCN1c1cc(C2([S@](C)(=N)=O)CC2)nc(-c2ccnc3[nH]ccc23)n1 [AZD6738] + Nc1ccn([C@@H]2O[C@H](CO)[C@@H](O)C2(F)F)c(=O)n1 [Gemcitabine] (first compound max 10 µM, 7x7, partner max 0.3 µM)	0.642	1	0.63	0.495		1	0.969	0.877	0.724	0.961	0.462	0.503	0.768	
N#Cc1cnc(Nc2cc(NC[C@H]3CNCCO3)c(C(F)(F)F)cn2)cn1 [SRA737] + Nc1ccn([C@@H]2O[C@H](CO)[C@@H](O)C2(F)F)c(=O)n1 [Gemcitabine] (first compound max 10 µM, 7x7, partner max 0.3 µM)	0.638	1	0.644	0.462		1	0.951	0.868	0.745	0.945	0.373	0.506	0.709	
C[C@@H]1COCCN1c1cc(C2([S@](C)(=N)=O)CC2)nc(-c2ccnc3[nH]ccc23)n1 [AZD6738] + C1CC(C1)(C(=O)[O-])C(=O)[O-].N.N.[Pt+2] [Carboplatin] (first compound max 10 µM, 7x7, partner max 10 µM)	0.549	0.858	0.349	0.236	0.471	0.896		0.51	0.39	0.659	0.171	0.491	0.679	-0.0351
CN(CCO)CC[C@H](CSc1ccccc1)Nc1ccc(S(=O)(=O)NC(=O)c2ccc(N3CCC([C@@H](O)c4ccccc4-c4ccc(Cl)cc4)CC3)cc2)cc1S(=O)(=O)C(F)(F)F [AZD4320] + CC(=O)O[C@H]1C(=O)[C@@]2(C)[C@H]([C@H](OC(=O)c3ccccc3)[C@]3(O)C[C@H](OC(=O)[C@H](O)[C@@H](NC(=O)c4ccccc4)c4ccccc4)C(C)=C1C3(C)C)[C@]1(OC(C)=O)CO[C@@H]1C[C@@H]2O [Paclitaxel] (first compound max 1 µM, 7x7, partner max 3 µM)	0.923	1	0.928	0.917		1	0.989	0.952	0.959	0.971	0.833	0.709	0.977	-0.0097
